Test results as given in patent US20220016251A1, “LYMPHATIC MEDIATED TRANSPORT-BASED TRIGLYCERIDE PRODRUG, AND PREPARATION METHOD THEREFOR” (SHENYANG PHARMACEUTICAL UNIVERSITY, priority 2019, published 2022).
Converted amounts (≈) assume the structure as drawn. Read-outs that look alike come from different tables or passages of the source. Values belong to the compound of their own block, whether it stands above or below them.

What was measured:
in vivo = assay: in vivo
Experimental: Taking SD rats as a model, a docetaxel-triglyceride prodrug emulsion and a docetaxel solution are orally administered; a plasma concentration of a parent drug is measured; and a drug-time curve is drawn and corresponding pharmacokinetic parameters are calculated respectively based on the measured concentration (Table 2). In order to calculate the absolute bioavailability, a docetaxel solution is administered intravenously, and the content of docetaxel in the plasma is measured.
In addition, in order to investigate whether the docetaxel-triglyceride prodrug is transported through the lymphatics, one hour before oral administration of the DTX-S-S-TG and the docetaxel solution, […] is administered intraperitoneally to inhibit the release of chylomicrons. The effect of lymphatic transport on the absorption of the prodrug is investigated.

pancreatic lipase = assay: Digestion in bile-pancreatic juice simulated intestinal juice; assay type: in vitro ADME; details: 37° C.
Experimental: (§1) Emulsions prepared in Example 5 are incubated in simulated gastric juice, bile-pancreatic juice simulated intestinal juice, and lipoprotein lipase-containing plasma at 37° C., respectively; and samples are taken at predetermined time points to investigate the physical stability of the prodrug emulsion and the chemical stability of the prodrug in different media.

4T1 tumor = assay type: in vivo; details: oral, 4T1 tumor-bearing Balb/c mice
Excerpt: It reminds us that a good pharmacodynamic result not only requires a significant pharmacokinetic result, but also that a specific release at a tumor site is very important.

[1] = Stability in lipoprotein lipase-containing plasma; assay type: in vitro ADME; details: plasma added with lipoprotein lipase, after continuous incubation
Experimental: as §1

[2] = In vivo intestinal perfusion in rats
Excerpt: The intestinal permeability of a docetaxel-triglyceride prodrug is investigated by in vivo intestinal perfusion in rats. […] In order to investigate the effect of intestinal pancreatic lipase digestion on the absorption of the prodrug, a pancreatic lipase inhibitor orlistat is administrated half an hour in advance.

4T1 cells = assay: cells; assay type: cell-based; details: Mus musculus
Excerpt: (§2) In order to investigate the tumor reduction-sensitive release of DTX-S-S-TG, 4T1 cells and KB cells are used as models to investigate the cytotoxicity of DTX-5C-TG, a DTX-S-S-TG emulsion and a docetaxel solution. […] Due to a reduction-sensitive dithio linking bridge, DTX-S-S-TG has higher drug release efficiency than DTX-5C-TG, which is linked by insensitive ester bonds. As a result, the cytotoxicity of DTX-S-S-TG is stronger than that of DTX-5C-TG. Meanwhile, due to the slow release of a sensitive prodrug, DTX-S-S-TG has lower cytotoxicity than the docetaxel solution.

KB cells = assay: cells; assay type: cell-based; details: Homo sapiens
Excerpt: as §2

[3] = mouse, in vivo

oral bioavailability improved versus docetaxel (in vivo; rat, in vivo, po): 1.05-4.71 times
degradation into docetaxel-monoglyceride prodrugs in intestinal juice (pancreatic lipase): relatively slow degradation rate
release of docetaxel parent drug in plasma [1]: release the drug slowly
Compound: Docetaxel-C5(Et)-Triglyceride Prodrug [DTX-5C(Et)-TG]
anti-tumor effect (4T1 tumor): certain anti-tumor effect

Compound: CCCCCCCCCCCCCCCC(=O)OCC(COC(=O)CCCCCCCCCCCCCCC)OC(=O)C(CCC(=O)O[C@@H](C(=O)O[C@H]1C[C@@]2(O)[C@@H](OC(=O)c3ccccc3)[C@@H]3[C@]4(OC(C)=O)CO[C@@H]4C[C@H](O)[C@@]3(C)C(=O)[C@H](O)C(=C1C)C2(C)C)[C@@H](NC(=O)OC(C)(C)C)c1ccccc1)OC(=O)C(C)(C)C (some centres unmarked) [DTX-5C(Piv)-TG, Docetaxel-C5(Piv)-Triglyceride Prodrug]
permeability coefficient Ka, increase compared with docetaxel solution ([2]; in vivo intestinal perfusion in rats): 1.15 times
blood concentration (in vivo; oral, SD rats): lower than a detection limit
degradation into docetaxel-monoglyceride prodrugs in intestinal juice (pancreatic lipase): relatively slow degradation rate
release of docetaxel parent drug in plasma [1]: hardly releases the docetaxel parent drug

Compound: CC(=O)O[C@@]12CO[C@@H]1C[C@H](O)[C@@]1(C)C(=O)[C@H](O)C3=C(C)[C@@H](OC(=O)[C@H](O)[C@@H](NC(=O)OC(C)(C)C)c4ccccc4)C[C@@](O)([C@@H](OC(=O)c4ccccc4)[C@H]21)C3(C)C [DTX Solution, docetaxel]
effect of pancreatic lipase inhibitor orlistat on absorption ([2]; rat, in vivo): no significant effect
IC50 (4T1 cells; 48 h, read-out: IC50 4T1 48 h): 16.6 ng/mL (≈ 20.5 nM)
IC50 (4T1 cells; 72 h, read-out: IC50 4T1 72 h): 5.9 ng/mL (≈ 7.3 nM)
IC50 (KB cells; 48 h, read-out: IC50 KB 48 h): 4.9 ng/mL (≈ 6.07 nM)
IC50 (KB cells; 72 h, read-out: IC50 KB 72 h): 1.3 ng/mL (≈ 1.61 nM)
gastrointestinal toxicity (injury to intestinal segments) ([3]; iv): injury to respective intestinal segments
gastrointestinal toxicity (injury to intestinal segments) ([3]; po): slight injury to the jejunum
Fabs (in vivo; SD, rat, in vivo): 9.4%
AUC(0-t) (in vivo; SD, rat, in vivo, po): 168 ± 125 ng·h/mL
Cmax (in vivo; SD, rat, in vivo, po): 21 ± 6.8 ng/mL
Frel (in vivo; SD, rat, in vivo, po): 100%
Tmax (in vivo; SD, rat, in vivo, po): 0.4 ± 0.5 h
half-life (in vivo; SD, rat, in vivo, po): 11.8 ± 8.4 h
effect of cyclophosphamide (lymphatic suppression) on oral absorption / AUC (in vivo; rat, in vivo): no significant difference in AUC
anti-tumor effect (4T1 tumor): almost no anti-tumor effect
